Key:
Assay type in all cases: cell-based
[1] = target: T1, hA3 AR (Homo sapiens, UniProt P0DMS8); assay: cAMP accumulation assay, agonist mode, hA3 AR; set-up: expressed in transfected cells; details: relative to NECA, CHO-A3#18 cells
T1 sequence (P0DMS8 1-318): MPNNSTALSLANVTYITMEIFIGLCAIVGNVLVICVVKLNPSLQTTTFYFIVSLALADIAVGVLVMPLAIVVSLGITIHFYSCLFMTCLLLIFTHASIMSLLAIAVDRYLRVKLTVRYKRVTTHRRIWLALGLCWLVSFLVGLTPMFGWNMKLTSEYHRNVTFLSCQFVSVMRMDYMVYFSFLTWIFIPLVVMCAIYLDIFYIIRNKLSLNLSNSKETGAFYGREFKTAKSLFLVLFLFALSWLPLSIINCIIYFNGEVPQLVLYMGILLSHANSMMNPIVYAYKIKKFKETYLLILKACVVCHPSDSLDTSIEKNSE
From the text: (§1) To determine whether 1,3,5-triazine scaffold derivatives behave as agonists or antagonists, we performed cAMP accumulation assays with 11a and 11b at hA1 and hA3 AR. We confirmed whether the test compounds behave as antagonists by measuring the concentration change in cAMP in the presence of a full agonist 5-N-ethylcarboxamido adenosine (NECA) using antagonist mode assays. We also confirmed whether the test compounds could behave as agonists by comparing the relative percentage activation of NECA using agonist mode assays.
(§2) hA1 and hA3 AR functional experiments were carried out in CHO-A1 and CHO-A3#18 cell line, respectively. The day before the assay, the cells were seeded on the 96-well culture plate (Falcon 353072). The cells were washed with wash buffer (Mixture F12 Ham’s (Sigma N6658) for hA1 AR; Dulbecco’s modified eagle’s medium nutrient mixture F-12 ham (Sigma D8062) for hA3 AR; 25mM Hepes; pH = 7.4). Wash buffer was replaced by incubation buffer (Mixture F12 Ham’s (Sigma N6658) for hA1 AR; Dulbecco’s modified eagle’s medium nutrient mixture F-12 ham (Sigma D8062) for hA3 AR; 25 mM Hepes, 20 µM Rolipram (Sigma R6520); pH = 7.4). The cells were pre-incubated at 37 °C for 15 min. […] After incubation, the amount of cAMP was determined using cAMP Biotrak Enzyme immunoassay (EIA) System Kit (GE Healthcare RPN225).

[2] = target: T2, hA1 AR (Homo sapiens, UniProt P30542); assay: cAMP accumulation assay, antagonist mode, hA1 AR; details: in presence of NECA, CHO-A1 cells
T2 construct: host or cells: CHO-A1 (CHO cells expressing hA1 AR)
T2 sequence (P30542 1-326): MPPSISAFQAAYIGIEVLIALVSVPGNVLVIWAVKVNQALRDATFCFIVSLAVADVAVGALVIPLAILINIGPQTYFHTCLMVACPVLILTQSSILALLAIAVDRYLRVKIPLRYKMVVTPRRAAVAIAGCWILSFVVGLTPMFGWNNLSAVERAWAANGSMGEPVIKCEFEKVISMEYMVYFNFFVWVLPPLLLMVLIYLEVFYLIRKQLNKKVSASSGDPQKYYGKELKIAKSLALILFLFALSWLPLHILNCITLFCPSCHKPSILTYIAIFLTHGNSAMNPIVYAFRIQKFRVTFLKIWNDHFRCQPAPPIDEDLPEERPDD
From the text: as §1
(§3) hA1 and hA3 AR functional experiments were carried out in CHO-A1 and CHO-A3#18 cell line, respectively. The day before the assay, the cells were seeded on the 96-well culture plate (Falcon 353072). The cells were washed with wash buffer (Nutrient Mixture F12 Ham’s (Sigma N6658) for hA1 AR; Dulbecco’s modified eagle’s medium nutrient mixture F-12 ham (Sigma D8062) for hA3 AR; 25 mM Hepes; pH = 7.4). Wash buffer was replaced by incubation buffer (Mixture F12 Ham’s (Sigma N6658) for hA1 AR; Dulbecco’s modified eagle’s medium nutrient mixture F-12 ham (Sigma D8062) for hA3 AR; 25 mM Hepes, 20 µM Rolipram (Sigma R6520); pH = 7.4). […] After incubation, the amount of cAMP was determined using cAMP Biotrak Enzyme immunoassay (EIA) System Kit (GE Healthcare RPN225).

[3] = target: T2, hA1 AR; assay: cAMP accumulation assay, agonist mode, hA1 AR; details: relative to NECA, CHO-A1 cells
From the text: as §1, §2

[4] = target: T1, hA3 AR; assay: cAMP accumulation assay, antagonist mode, hA3 AR; set-up: expressed in transfected cells; details: in presence of NECA, CHO-A3#18 cells
From the text: as §1, §3

[5] = test system: A549 cells; assay: Live-dead assay (calcein/EthD-1) by flow cytometry; details: 48 h
Procedure: A live cell assay and a dead cell assay were carried out using a mixture of two fluorescent dyes: calcein (green dye for live cells) and ethidium homodimer-1 (EthD-1, red dye for dead cells). The cells were washed and stained with calcein and EthD-1 before conducting imaging fluorescence microscopy and flow cytometry experiments. When treated with 20 μM 9c, we observed a drastic decrease in the number of live cells (green) and a slight increase in the number of dead cells (red).
The A549 cells were seeded in 6-well plates at a density of 1 × 10^6 cells per well, and the cells underwent treatment with the compound (20 and 40 μM) for 48 h. The A549 cells were analyzed using fluorescent dyes for both living and dead cells with the LIVE/DEAD kit (Thermo Fisher Scientific, Waltham, MA, USA). For cell staining, we used EthD-1 and calcein by referring to the manufacturer’s instructions. Images were captured with an EVOS M5000 Imaging System (Thermo Fisher Scientific Inc., Waltham, MA, USA).

## COc1ccc(-c2nc(N)nc(Nc3ccc(OC)c(F)c3)n2)cc1 [Compound 11a, N^2-(3-fluoro-4-methoxyphenyl)-6-(4-methoxyphenyl)-1,3,5-triazine-2,4-diamine]
[1]
  Percentage activation in agonist mode, hA3 AR: 17%
[2]
  Percentage inhibition in antagonist mode, hA1 AR: 1%
[3]
  Percentage activation in agonist mode, hA1 AR: 11%
[4]
  Percentage inhibition in antagonist mode, hA3 AR: 77%

## COc1cc(Nc2nc(N)nc(-c3ccc(O)cc3)n2)ccc1Cl [Compound 9c, 4-{4-amino-6-[(4-chloro-3-methoxyphenyl)amino]-1,3,5-triazin-2-yl}phenol]
[5]; 20 μM
  Dead cells (quadrant Q4): 34.4%
[5]; 40 μM
  Dead cells (quadrant Q4): 46.1%

## COc1ccc(Nc2nc(N)nc(-c3ccc(F)cc3)n2)cc1F [Compound 11b, N^2-(3-fluoro-4-methoxyphenyl)-6-(4-fluorophenyl)-1,3,5-triazine-2,4-diamine]
[1]
  Percentage activation in agonist mode, hA3 AR: 6%
[2]
  Percentage inhibition in antagonist mode, hA1 AR: 60%
[3]
  Percentage activation in agonist mode, hA1 AR: 23%
[4]
  Percentage inhibition in antagonist mode, hA3 AR: 88%
